Patent publication JP2008280350A, “ナリンゲニンカルコンを有効成分とするヒスタミン遊離抑制剤又はロイコトリエン遊離抑制剤を含有する医薬品、飲食品又は化粧品” (Kikkoman Corp, priority 2000, dated 2001)
Values after ≈ are worked out from the molar mass of the structure shown. Where two headings read alike, the source gives them in different places.

Legend:
[1] = test system: mouse ear edema model [マウス耳介浮腫モデル]; assay: Anaphylaxis inhibition in mouse ear edema model; format: in vivo; conditions: C3H/Hecrj mice, female; oral; 0.8, 0.16, 0.032, 0.0064 mg/kg; 6 doses over 5 days; anti-TNP-IgE, picryl chloride (Fig. 4)
[2] = test system: rat macrophages [ラットマクロファージ]; assay: Leukotriene B4 release inhibition from rat macrophages (opsonized zymosan induced); format: cell-based; conditions: sample added 30 min before zymosan, LTB4 by ELISA (Table 2)
[3] = test system: cell suspension prepared as in Example 2 (rat mast cells) [ラット肥満細胞]; assay: Cytotoxicity test (trypan blue cell viability); format: cell-based; conditions: 37°C, 0, 10, 20, 60, 120 min
rat mast cells [ラット肥満細胞] = assay: Histamine release inhibition from rat mast cells (compound 48/80 induced); format: cell-based; conditions: for IC50: Rattus norvegicus, Mast cell, 10 min, read-out: IC50 (50% inhibition rate), histamine release

| SMILES | anaphylaxis inhibitory activity (ear edema) [1] | leukotriene release inhibitory activity [2] | cytotoxicity (cell viability, number of viable cells) [3] | IC50 (rat mast cells [ラット肥満細胞]; compound 48/80 (5 μg/ml) as inducer, 37°C, sample solutions 25-250 μg/ml) [µg/mL] | histamine release inhibitory activity (in words) (rat mast cells [ラット肥満細胞]; compound 48/80 as inducer, compared with ketotifen fumarate (Table 1)) | histamine release inhibitory activity relative to ketotifen fumarate (fold) (rat mast cells [ラット肥満細胞]; from IC50 values, versus ketotifen fumarate) | IC50 (rat mast cells [ラット肥満細胞]) [µg/mL] |
| --- | --- | --- | --- | --- | --- | --- | --- |
| O=C(/C=C/c1ccc(O)cc1)c1c(O)cc(O)cc1O [ナリンゲニンカルコン, 2’4’6’4’−Tetrahydroxychalcone] | 容量依存的なアナフィラキシー抑制活性を示した | 用量依存的に、ロイコトリエン遊離抑制活性を示した | 細胞毒性は見られなかった | ~70 (≈ 257 µM) | 公知のヒスタミン遊離抑制剤であるフマル酸ケトチフェンよりも強い、ヒスタミン遊離抑制活性を示した | ~3.5 倍 (fold) | – |
| CN1CCC(=C2c3ccccc3CC(=O)c3sccc32)CC1 [フマル酸ケトチフェン, reference compound] | – | – | – | – | – | – | ~250 (≈ 808 µM) |
